# Patent publication US6664231B1, “Anti-fungal peptides” (priority 1993, dated 2003)
# Square brackets hold non-standard residues; d marks the D form. Peptide text beside a SMILES is read from it. Phe(4-NH2) = Nc1ccc(C[C@H](N)C(=O)O)cc1; 1Nal = N[C@@H](Cc1cccc2ccccc12)C(=O)O; Dab = NCC[C@H](N)C(=O)O; Abu = CC[C@H](N)C(=O)O
# System: C. albicans (CA-1, Strain SLU-1)
# Test: Radial diffusion assay
# Assay type: cell-based, Candida albicans
# Settings: HPLC-purified peptide; nanomoles required to achieve a net 30 mm^2 zone (log titration curve)
# In short: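 Peptides, serially diluted 2-fold in D-PBS (top ~1 mg/mL), diffused 3 h at 37° C into pH 7.4 phosphate-buffered agarose seeded with 1×10^6 CFU/mL yeast, before overnight growth under a 6% Sabouraud overlayer. Net inhibition zones measured after Coomassie staining; PROBIT fit of log pmol vs area gave pmol for 30 mm^2.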
row,Molecule,"Plate Assay (nmol), pure peptide activity"
1,H-KVKWLIQL-NH2 [Peptide 300],0.993 nmol
2,H-WLIQLF-NH2 [compound 316],inactive

# Same assay, conditions: crude peptide; nanomoles required to achieve a net 30 mm^2 zone (log titration curve)
row,Molecule,"Plate Assay (nmol), crude peptide activity [nmol]"
1,H-LIQLFHKK-NH2 [Peptide 304],>8.290
2,H-KVKWLIQL-NH2 [Peptide 300],1.957
3,H-WLIQLF-NH2 [compound 316],11.1
4,H-VKWLIQL-NH2 [Peptide 307],>8.345

# Same assay, conditions: pmoles of peptide added to well to achieve a 30 mm^2 zone, PROBIT analysis; crude or purified (P′) peptide
row,Molecule,C. albicans pmol/30 mm^2 zone
1,CC[C@H](C)[C@H](NC(=O)[C@H](CC(C)C)NC(=O)[C@H](Cc1c[nH]c2ccccc12)NC(=O)CNC(=O)[C@@H](NC(=O)[C@H](CCCCN)NC(=O)[C@H](CO)NC(=O)[C@@H](N)CCCCN)C(C)C)C(=O)N[C@@H](Cc1ccc(N)cc1)C(=O)N[C@@H](CC(C)C)C(=O)N[C@@H](Cc1ccccc1)C(=O)N[C@@H](Cc1c[nH]cn1)C(=O)N[C@@H](CCCCN)C(=O)N[C@@H](Cc1cccc2ccccc12)C(N)=O [XMP.228] (H-KSKVGWLI[Phe(4-NH2)]LFHK[1Nal]-NH2),b (No detectable activity up to 5 μg/well)
2,H-IQLFHK-NH2 [XMP.318],b (No detectable activity up to 5 μg/well)
3,H-ASKVGWLIQLFHKK-NH2 [XMP.31],426 pmol/30 mm^2 zone
4,H-SKVKWL-NH2 [XMP.312],">11,120 pmol/30 mm^2 zone"
5,CC[C@H](C)[C@H](NC(=O)[C@H](CC(C)C)NC(=O)[C@@H](Cc1c[nH]c2ccccc12)NC(=O)CNC(=O)[C@@H](NC(=O)[C@H](CCCCN)NC(=O)[C@H](CO)NC(=O)[C@@H](N)CCCCN)C(C)C)C(=O)N[C@@H](CCC(N)=O)C(=O)N[C@@H](CC(C)C)C(=O)N[C@@H](Cc1ccccc1)C(=O)N[C@@H](Cc1c[nH]cn1)C(=O)N[C@@H](CCCCN)C(=O)N[C@@H](CCCCN)C(N)=O [XMP.126] (H-KSKVG[dW]LIQLFHKK-NH2),1404 pmol/30 mm^2 zone
6,H-KSKVGWLIQLFHKKKSKVGWLILLFHKK-NH2 [XMP.271],">1,995 pmol/30 mm^2 zone"
7,H-KVKWLIQLFH-NH2 [XMP.291],">5,039 pmol/30 mm^2 zone"
8,"XMP.392: 150-161, P @ 152 (G) (SEQ ID NO:223) (KVPWLIQLFHKK)",569 pmol/30 mm^2 zone
9,H-WLIQLFH-NH2 [XMP.309],b (No detectable activity up to 5 μg/well)
10,XMP.408: L - K - K - K - W - A - I - Q (cyclized head to tail) (SEQ ID NO:239) (LKKKWAIQ; head-to-tail cyclized),b (No detectable activity up to 5 μg/well)
11,H-VKWLIQL-NH2 [XMP.307],">8,345 pmol/30 mm^2 zone"
12,CC[C@H](C)[C@H](NC(=O)[C@H](CC(C)C)NC(=O)[C@H](Cc1c[nH]c2ccccc12)NC(=O)CNC(=O)[C@@H](NC(=O)[C@H](CCCCN)NC(=O)[C@H](CO)NC(=O)[C@@H](N)CCCCN)C(C)C)C(=O)N[C@@H](CCC(N)=O)C(=O)N[C@@H](Cc1cccc2ccccc12)C(=O)N[C@@H](Cc1ccccc1)C(=O)N[C@@H](Cc1cccc2ccccc12)C(=O)N[C@@H](CCCCN)C(=O)N[C@@H](CCCCN)C(N)=O [XMP.231] (H-KSKVGWLIQ[1Nal]F[1Nal]KK-NH2),b (No detectable activity up to 5 μg/well)
13,CC[C@H](C)[C@H](NC(=O)[C@H](CC(C)C)NC(=O)[C@H](Cc1cccc2ccccc12)NC(=O)CNC(=O)[C@@H](NC(=O)[C@H](CCCCN)NC(=O)[C@H](CO)NC(=O)[C@@H](N)CCCCN)C(C)C)C(=O)N[C@@H](CCC(N)=O)C(=O)N[C@@H](Cc1cccc2ccccc12)C(=O)N[C@@H](Cc1ccccc1)C(=O)N[C@@H](Cc1c[nH]cn1)C(=O)N[C@@H](CCCCN)C(=O)N[C@@H](CCCCN)C(N)=O [XMP.223] (H-KSKVG[1Nal]LIQ[1Nal]FHKK-NH2),b (No detectable activity up to 5 μg/well)
14,CC[C@H](C)[C@H](NC(=O)[C@H](CC(C)C)NC(=O)[C@H](Cc1c[nH]c2ccccc12)NC(=O)[C@H](Cc1ccc(N)cc1)NC(=O)[C@@H](NC(=O)[C@H](CCCCN)NC(=O)[C@H](CO)NC(=O)[C@@H](N)CCCCN)C(C)C)C(=O)N[C@@H](CCC(N)=O)C(=O)N[C@@H](CC(C)C)C(=O)N[C@@H](Cc1c[nH]c2ccccc12)C(=O)N[C@@H](Cc1c[nH]cn1)C(=O)N[C@@H](CCCCN)C(=O)N[C@@H](CCCCN)C(N)=O [XMP.240] (H-KSKV[Phe(4-NH2)]WLIQLWHKK-NH2),">2,802 pmol/30 mm^2 zone"
15,CC[C@H](C)[C@H](NC(=O)[C@H](CC(C)C)NC(=O)[C@H](Cc1cccc2ccccc12)NC(=O)CNC(=O)[C@@H](NC(=O)[C@H](CCCCN)NC(=O)[C@H](CO)NC(=O)[C@@H](N)CCCCN)C(C)C)C(=O)N[C@@H](CCC(N)=O)C(=O)N[C@@H](CC(C)C)C(=O)N[C@@H](Cc1c[nH]c2ccccc12)C(=O)N[C@@H](Cc1c[nH]cn1)C(=O)N[C@@H](CCCCN)C(=O)N[C@@H](CCCCN)C(N)=O [XMP.226] (H-KSKVG[1Nal]LIQLWHKK-NH2),">2,597 pmol/30 mm^2 zone"
16,H-LIQLFHK-NH2 [XMP.310],">9,475 pmol/30 mm^2 zone"

row,Molecule,C. albicans pmol/30 mm^2 zone
1,CC[C@H](C)[C@H](NC(=O)[C@H](CC(C)C)NC(=O)[C@H](Cc1cccc2ccccc12)NC(=O)CNC(=O)[C@@H](NC(=O)[C@H](CCCCN)NC(=O)[C@H](CO)NC(=O)[C@@H](N)CCCCN)C(C)C)C(=O)N[C@@H](CCC(N)=O)C(=O)N[C@@H](CC(C)C)C(=O)N[C@@H](Cc1ccccc1)C(=O)N[C@@H](Cc1c[nH]cn1)C(=O)N[C@@H](CCCCN)C(=O)N[C@@H](CCCCN)C(N)=O [XMP.83] (H-KSKVG[1Nal]LIQLFHKK-NH2),1804 pmol/30 mm^2 zone
2,H-VKWLIQLFH-NH2 [XMP.296],">5,573 pmol/30 mm^2 zone"
3,CC[C@H](C)[C@H](NC(=O)[C@H](CC(C)C)NC(=O)[C@H](Cc1c[nH]c2ccccc12)NC(=O)[C@@H](N)CCCCN)C(=O)N[C@@H](CCC(N)=O)C(=O)N[C@@H](CC(C)C)C(=O)N[C@@H](CCCCN)C(N)=O [XMP.323],">4,627 pmol/30 mm^2 zone"
4,CC[C@H](C)[C@H](NC(=O)[C@H](CC(C)C)NC(=O)[C@H](Cc1c[nH]c2ccccc12)NC(=O)[C@H](CCN)NC(=O)[C@@H](N)CCN)C(=O)N[C@@H](CCC(N)=O)C(=O)N[C@@H](CC(C)C)C(=O)N[C@@H](CCN)C(=O)N[C@@H](CCN)C(N)=O [XMP.339] (H-[Dab][Dab]WLIQL[Dab][Dab]-NH2),"2,878 pmol/30 mm^2 zone"
5,CC[C@H](NC(=O)CNC(=O)[C@@H](NC(=O)[C@H](CCCCN)NC(=O)[C@H](CO)NC(=O)[C@@H](N)CCCCN)C(C)C)C(=O)N[C@@H](CC(C)C)C(=O)N[C@H](C(=O)N[C@@H](CCC(N)=O)C(=O)N[C@@H](CC(C)C)C(=O)N[C@@H](Cc1ccccc1)C(=O)N[C@@H](Cc1c[nH]cn1)C(=O)N[C@@H](CCCCN)C(=O)N[C@@H](CCCCN)C(N)=O)[C@@H](C)CC [XMP.255] (H-KSKVG[Abu]LIQLFHKK-NH2),392 pmol/30 mm^2 zone
6,H-KSKVGWLAQLFHKK-NH2 [XMP.38],391 pmol/30 mm^2 zone
7,H-KSKVGWLILLFHKKKSKVGWLILLFHKK-NH2 [XMP.272],">2,599 pmol/30 mm^2 zone"
8,CC[C@H](C)[C@H](NC(=O)[C@H](CC(C)C)NC(=O)[C@H](Cc1c[nH]c2ccccc12)NC(=O)[C@H](Cc1ccc(N)cc1)NC(=O)[C@@H](NC(=O)[C@H](CCCCN)NC(=O)[C@H](CO)NC(=O)[C@@H](N)CCCCN)C(C)C)C(=O)N[C@@H](CCC(N)=O)C(=O)N[C@@H](CC(C)C)C(=O)N[C@@H](Cc1ccccc1)C(=O)N[C@@H](Cc1c[nH]cn1)C(=O)N[C@@H](CCCCN)C(=O)N[C@@H](CCCCN)C(N)=O [XMP.134],1255 pmol/30 mm^2 zone
9,CC[C@H](C)[C@H](NC(=O)[C@H](CC(C)C)NC(=O)[C@H](Cc1c[nH]c2ccccc12)NC(=O)CNC(=O)[C@@H](NC(=O)[C@H](CCCCN)NC(=O)[C@H](CO)NC(=O)[C@@H](N)CCCCN)C(C)C)C(=O)N[C@@H](CCC(N)=O)C(=O)N[C@@H](CC(C)C)C(=O)N[C@@H](Cc1c[nH]c2ccccc12)C(=O)N[C@@H](Cc1cccc2ccccc12)C(=O)N[C@@H](CCCCN)C(=O)N[C@@H](CCCCN)C(N)=O [XMP.234] (H-KSKVGWLIQLW[1Nal]KK-NH2),b (No detectable activity up to 5 μg/well)
10,CC[C@H](C)[C@H](NC(=O)[C@H](CC(C)C)NC(=O)[C@H](Cc1c[nH]c2ccccc12)NC(=O)[C@H](Cc1ccc(N)cc1)NC(=O)[C@@H](N)Cc1ccc(N)cc1)C(=O)N[C@@H](CCC(N)=O)C(=O)N[C@@H](CC(C)C)C(=O)N[C@@H](Cc1ccc(N)cc1)C(=O)N[C@@H](Cc1ccc(N)cc1)C(N)=O [XMP.340] (H-[Phe(4-NH2)][Phe(4-NH2)]WLIQL[Phe(4-NH2)][Phe(4-NH2)]-NH2),b (No detectable activity up to 5 μg/well)
11,H-RRWLIQLRR-NH2 [XMP.336],">7,332 pmol/30 mm^2 zone"
12,H-VKWLIQLFHK-NH2 [XMP.292],">4,463 pmol/30 mm^2 zone"
13,H-KSKVWLIQLFHKK-NH2 [XMP.11],645 pmol/30 mm^2 zone
14,H-KSKVGWLIKLFHKK-NH2 [XMP.92],299 pmol/30 mm^2 zone
15,H-KSKVGWLIALFHKK-NH2 [XMP.39],1792 pmol/30 mm^2 zone
16,H-KSKVGWLIFLFHKKKSKVGWLIQLFHKK-NH2 [XMP.273],">2,120 pmol/30 mm^2 zone"

# Same assay, conditions: pmoles of peptide added to well to achieve a 30 mm^2 zone, PROBIT analysis; crude or purified (P′) peptide; listed as XMP.226P′
row,Molecule,C. albicans pmol/30 mm^2 zone
1,CC[C@H](C)[C@H](NC(=O)[C@H](CC(C)C)NC(=O)[C@H](Cc1cccc2ccccc12)NC(=O)CNC(=O)[C@@H](NC(=O)[C@H](CCCCN)NC(=O)[C@H](CO)NC(=O)[C@@H](N)CCCCN)C(C)C)C(=O)N[C@@H](CCC(N)=O)C(=O)N[C@@H](CC(C)C)C(=O)N[C@@H](Cc1c[nH]c2ccccc12)C(=O)N[C@@H](Cc1c[nH]cn1)C(=O)N[C@@H](CCCCN)C(=O)N[C@@H](CCCCN)C(N)=O [XMP.226] (H-KSKVG[1Nal]LIQLWHKK-NH2),">2,895 pmol/30 mm^2 zone"

# Same assay, conditions: pmoles of peptide added to well to achieve a 30 mm^2 zone, PROBIT analysis; crude or purified (P′) peptide; listed as XMP.336P′
row,Molecule,C. albicans pmol/30 mm^2 zone
1,H-RRWLIQLRR-NH2 [XMP.336],"h (inactive to 5,268 pmol)"

# Same assay, conditions: pmoles of peptide added to well to achieve a 30 mm^2 zone, PROBIT analysis; crude or purified (P′) peptide; listed as XMP.339P′
row,Molecule,C. albicans pmol/30 mm^2 zone
1,CC[C@H](C)[C@H](NC(=O)[C@H](CC(C)C)NC(=O)[C@H](Cc1c[nH]c2ccccc12)NC(=O)[C@H](CCN)NC(=O)[C@@H](N)CCN)C(=O)N[C@@H](CCC(N)=O)C(=O)N[C@@H](CC(C)C)C(=O)N[C@@H](CCN)C(=O)N[C@@H](CCN)C(N)=O [XMP.339] (H-[Dab][Dab]WLIQL[Dab][Dab]-NH2),"2,599 pmol/30 mm^2 zone"
